Among the data in patent publication US9050344B2, “Therapeutic compounds” (Gilead Sciences, Inc., priority 2013, dated 2015) are CC50 and inhibition values, retold here.

Where only a bound is given, the exact number is not on record here.

Data set [1] in a line: Test B: Cytotoxicity Assay (protocol of Test A, uninfected cells). The data set is classed as cell-based. As to conditions: human, uninfected MT-4 cells, CellTiter-Glo. The method, then:
Test B: Cytotoxicity Assay Compound cytotoxicity and the corresponding CC50 values was determined using the same protocol as described in the antiviral assay (Test A) except that uninfected cells were used.
Background: Cellular ATP, detected with luciferase, serves as a proxy for viable cell number.

Data set [2] has as its system HIV-IIIb. Kind of data set: Test A: Antiviral Assay in MT4 Cells. As to conditions: Human immunodeficiency virus 1, IIIB, MT4, 120 h, read-out: % inhibition at 3 μM. The class given is cell-based, HIV-1. The method, then: Test A: Antiviral Assay in MT4 Cells
For the antiviral assay, 40 μL of 1× test concentration of 3-fold serially diluted compound in culture medium with 10% FBS was added to each well of a 384-well plate (10 concentrations) in quadruplicate. MT-4 cells were next mixed with HIV-IIIb at an m.o.i of 0.003 for 1 hour, after which time 35 μL of virus/cell mixture (2000 cells) was immediately added to each well containing 40 μL of diluted compound. The plates were then incubated at 37° C. for 5 days. After 5 days of incubation, 25 μl of 2× concentrated CellTiter-Glo™ Reagent (catalog #G7571, Promega Biosciences, Inc., Madison, Wis.) was added to each well containing MT-4 cells. Cell lysis was carried out by incubating at room temperature for 10 min and then chemiluminescence was read.

In the case of `CN(C)c1cnc([C@H](Cc2cc(F)cc(F)c2)NC(=O)Cn2nc(C(F)F)c3c2C(F)(F)[C@@H]2C[C@H]32)c(-c2ccc(Cl)c3c(NS(C)(=O)=O)nn(C)c23)c1` [Compound 50, N—((S)-1-(3-(4-chloro-1-methyl-3-(methylsulfonamido)-1H-indazol-7-yl)-5-(dimethylamino)pyridin-2-yl)-2-(3,5-difluorophenyl)ethyl)-2-((3bS,4aR)-3-(difluoromethyl)-5,5-difluoro-3b,4,4a,5-tetrahydro-1H-cyclopropa[3,4]cyclopenta[1,2-c]pyrazol-1-yl)acetamide], the 50% cytotoxic concentration (CC50) at 5 days in data set [1] is 34.2 µM. Further, in data set [2], the inhibition at 3 µM worked out at 86%.

As for `Cc1c(-c2cc(N)cnc2[C@H](Cc2cc(F)cc(F)c2)NC(=O)Cn2nc(C(F)(F)F)c3c2C(F)(F)[C@@H]2C[C@H]32)ccc2n[nH]c(=O)n12` [Compound 34, N—((S)-1-(5-amino-3-(5-methyl-3-oxo-2,3-dihydro-[1,2,4]triazolo[4,3-a]pyridin-6-yl)pyridin-2-yl)-2-(3,5-difluorophenyl)ethyl)-2-((3bS,4aR)-5,5-difluoro-3-(trifluoromethyl)-3b,4,4a,5-tetrahydro-1H-cyclopropa[3,4]cyclopenta[1,2-c]pyrazol-1-yl)acetamide], the CC50 at 5 days in data set [1] came to 22.4 µM. For the same compound, in data set [2], the inhibition at 3 µM was found to be 89%.

The compound `Cc1c(-c2cc(NC(=O)C(F)(F)F)cnc2[C@H](Cc2cc(F)cc(F)c2)NC(=O)Cn2nc(C(F)(F)F)c3c2C(F)(F)[C@@H]2C[C@H]32)ccc2n[nH]c(=O)n12` [Compound 40, N-(6-((S)-1-(2-((3bS,4aR)-5,5-difluoro-3-(trifluoromethyl)-3b,4,4a,5-tetrahydro-1H-cyclopropa[3,4]cyclopenta[1,2-c]pyrazol-1-yl)acetamido)-2-(3,5-difluorophenyl)ethyl)-5-(5-methyl-3-oxo-2,3-dihydro-[1,2,4]triazolo[4,3-a]pyridin-6-yl)pyridin-3-yl)-2,2,2-trifluoroacetamide] registered a CC50 at 5 days in data set [1] of 24.1 µM. In data set [2], the inhibition at 3 µM turned out to be 96%.

In turn, `NC(=O)c1cc(-c2cc(N3C(=O)c4ccccc4C3=O)cnc2[C@H](Cc2cc(F)cc(F)c2)NC(=O)Cn2nc(C(F)(F)F)c3c2C(F)(F)[C@@H]2C[C@H]32)ccc1F` [Compound 30K, 5-(2-((S)-1-(2-((3bS,4aR)-5,5-difluoro-3-(trifluoromethyl)-3b,4,4a,5-tetrahydro-1H-cyclopropa[3,4]cyclopenta[1,2-c]pyrazol-1-yl)acetamido)-2-(3,5-difluorophenyl)ethyl)-5-(1,3-dioxoisoindolin-2-yl)pyridin-3-yl)-2-fluorobenzamide] yielded a cytotoxic concentration (CC50) at 5 days in data set [1] above 53.2 µM. In data set [2], the inhibition at 3 µM was determined as 48%.

As for `Cn1nc(NS(C)(=O)=O)c2cccc(-c3ccc(N4CC(N)CC4=O)nc3[C@H](Cc3cc(F)cc(F)c3)NC(=O)Cn3nc(C(F)(F)F)c4c3C(F)(F)[C@@H]3C[C@H]43)c21` (stereo partly drawn) [Compound 43B, N-((1S)-1-(6-(4-amino-2-oxopyrrolidin-1-yl)-3-(1-methyl-3-(methylsulfonamido)-1H-indazol-7-yl)pyridin-2-yl)-2-(3,5-difluorophenyl)ethyl)-2-((3bS,4aR)-5,5-difluoro-3-(trifluoromethyl)-3b,4,4a,5-tetrahydro-1H-cyclopropa[3,4]cyclopenta[1,2-c]pyrazol-1-yl)acetamide], in data set [1], the CC50 at 5 days stood at 16.9 µM. The inhibition at 3 µM in data set [2] was 83%.

In data set [1], `Cn1nc(NS(C)(=O)=O)c2cccc(-c3cc(N)c(C#N)nc3[C@H](Cc3cc(F)cc(F)c3)NC(=O)Cn3nc(C(F)(F)F)c4c3C(F)(F)[C@@H]3C[C@H]43)c21` [Compound 46F, N—((S)-1-(5-amino-6-cyano-3-(1-methyl-3-(methylsulfonamido)-1H-indazol-7-yl)pyridin-2-yl)-2-(3,5-difluorophenyl)ethyl)-2-((3bS,4aR)-5,5-difluoro-3-(trifluoromethyl)-3b,4,4a,5-tetrahydro-1H-cyclopropa[3,4]cyclopenta[1,2-c]pyrazol-1-yl)acetamide] displayed a CC50 at 5 days of 12.5 µM. Moreover, the inhibition at 3 µM in data set [2] was 109%.

In the case of `CN1CCN(c2ccc(-c3ccc(Cl)c4c(NS(C)(=O)=O)nn(C)c34)c([C@H](Cc3cc(F)cc(F)c3)NC(=O)Cn3nc(C(F)(F)F)c4c3C(F)(F)[C@@H]3C[C@H]43)n2)CC1` [Compound 60C, N—((S)-1-(3-(4-chloro-1-methyl-3-(methylsulfonamido)-1H-indazol-7-yl)-6-(4-methylpiperazin-1-yl)pyridin-2-yl)-2-(3,5-difluorophenyl)ethyl)-2-((3bS,4aR)-5,5-difluoro-3-(trifluoromethyl)-3b,4,4a,5-tetrahydro-1H-cyclopropa[3,4]cyclopenta[1,2-c]pyrazol-1-yl)acetamide], in data set [1], the CC50 at 5 days was 9.11 µM. Also, the inhibition at 3 µM in data set [2] was 90%.

`Cn1nc(NS(C)(=O)=O)c2c(Cl)ccc(-c3cc(N)cnc3[C@H](Cc3cc(F)cc(F)c3)NC(=O)Cn3nc(C(F)(F)F)c4c3C(F)(F)[C@@H]3C[C@H]43)c21` [Compound 52, N—((S)-1-(5-amino-3-(4-chloro-1-methyl-3-(methylsulfonamido)-1H-indazol-7-yl)pyridin-2-yl)-2-(3,5-difluorophenyl)ethyl)-2-((3bS,4aR)-5,5-difluoro-3-(trifluoromethyl)-3b,4,4a,5-tetrahydro-1H-cyclopropa[3,4]cyclopenta[1,2-c]pyrazol-1-yl)acetamide] showed a CC50 at 5 days in data set [1] of 21.5 µM. Further, the inhibition at 3 µM in data set [2] is 104%.

The compound `Cc1nc([C@H](Cc2cc(F)cc(F)c2)NC(=O)Cn2nc(C(F)F)c3c2C(F)(F)[C@@H]2C[C@H]32)c(-c2ccc(Cl)c3c(NS(C)(=O)=O)nn(C)c23)cc1N` [Compound 47C, N—((S)-1-(5-amino-3-(4-chloro-1-methyl-3-(methylsulfonamido)-1H-indazol-7-yl)-6-methylpyridin-2-yl)-2-(3,5-difluorophenyl)ethyl)-2-((3bS,4aR)-3-(difluoromethyl)-5,5-difluoro-3b,4,4a,5-tetrahydro-1H-cyclopropa[3,4]cyclopenta[1,2-c]pyrazol-1-yl)acetamide] showed a CC50 at 5 days in data set [1] of 18.1 µM. The inhibition at 3 µM in data set [2] turned out to be 107%.

On to `CC(=O)Nc1cnc([C@H](Cc2cc(F)cc(F)c2)NC(=O)Cn2nc(C(F)(F)F)c3c2C(F)(F)[C@@H]2C[C@H]32)c(-c2cccc3c(N(C(C)=O)S(C)(=O)=O)nn(C)c23)c1` [Compound 38B], for which the CC50 at 5 days in data set [1] stood at 40.8 µM. For the same compound, the inhibition at 3 µM in data set [2] was 98%.

For `NC(=O)c1cc(-c2cc(N)cnc2[C@H](Cc2cc(F)cc(F)c2)NC(=O)Cn2nc(C(F)(F)F)c3c2C(F)(F)[C@@H]2C[C@H]32)ccc1F` [Compound 31, 5-(5-amino-2-((S)-1-(2-((3bS,4aR)-5,5-difluoro-3-(trifluoromethyl)-3b,4,4a,5-tetrahydro-1H-cyclopropa[3,4]cyclopenta[1,2-c]pyrazol-1-yl)acetamido)-2-(3,5-difluorophenyl)ethyl)pyridin-3-yl)-2-fluorobenzamide], it took 19.5 µM to reach half-maximal cytotoxicity in data set [1] (CC50 at 5 days). Also, the inhibition at 3 µM in data set [2] stood at 96%.

`CNc1cnc([C@H](Cc2cc(F)cc(F)c2)NC(=O)Cn2nc(C(F)F)c3c2C(F)(F)[C@@H]2C[C@H]32)c(-c2ccc(Cl)c3c(NS(C)(=O)=O)nn(C)c23)c1` [Compound 51, N—((S)-1-(3-(4-chloro-1-methyl-3-(methylsulfonamido)-1H-indazol-7-yl)-5-(methylamino)pyridin-2-yl)-2-(3,5-difluorophenyl)ethyl)-2-((3bS,4aR)-3-(difluoromethyl)-5,5-difluoro-3b,4,4a,5-tetrahydro-1H-cyclopropa[3,4]cyclopenta[1,2-c]pyrazol-1-yl)acetamide]: the CC50 at 5 days in data set [1] was found to be 16.6 µM. The inhibition at 3 µM in data set [2] came out at 79%.

As for `Cc1c(-c2cc(NS(C)(=O)=O)cnc2[C@H](Cc2cc(F)cc(F)c2)NC(=O)Cn2nc(C(F)(F)F)c3c2C(F)(F)[C@@H]2C[C@H]32)ccc2n[nH]c(=O)n12` [Compound 41E, 2-((3bS,4aR)-5,5-difluoro-3-(trifluoromethyl)-3b,4,4a,5-tetrahydro-1H-cyclopropa[3,4]cyclopenta[1,2-c]pyrazol-1-yl)-N—((S)-2-(3,5-difluorophenyl)-1-(3-(5-methyl-3-oxo-2,3-dihydro-[1,2,4]triazolo[4,3-a]pyridin-6-yl)-5-(methylsulfonamido)pyridin-2-yl)ethyl)acetamide], the CC50 at 5 days in data set [1] was above 50 µM. The inhibition at 3 µM in data set [2] was found to be 91%.

`NC(=O)c1cc(-c2cc(N)cnc2[C@H](Cc2cc(F)cc(F)c2)NC(=O)Cn2nc(C(F)F)c3c2C(F)(F)CCC3(F)F)ccc1F` [Compound 33, (S)-5-(5-amino-2-(1-(2-(3-(difluoromethyl)-4,4,7,7-tetrafluoro-4,5,6,7-tetrahydro-1H-indazol-1-yl)acetamido)-2-(3,5-difluorophenyl)ethyl)pyridin-3-yl)-2-fluorobenzamide]: in data set [1], the CC50 at 5 days was 13.3 µM. Also, the inhibition at 3 µM in data set [2] was found to be 85%.

On to `CC(=O)Nc1cnc([C@H](Cc2cc(F)cc(F)c2)NC(=O)Cn2nc(C(F)(F)F)c3c2C(F)(F)[C@@H]2C[C@H]32)c(-c2cccc3c(NS(C)(=O)=O)nn(C)c23)c1` [Compound 39, N—((S)-1-(5-acetamido-3-(1-methyl-3-(methylsulfonamido)-1H-indazol-7-yl)pyridin-2-yl)-2-(3,5-difluorophenyl)ethyl)-2-((3bS,4aR)-5,5-difluoro-3-(trifluoromethyl)-3b,4,4a,5-tetrahydro-1H-cyclopropa[3,4]cyclopenta[1,2-c]pyrazol-1-yl)acetamide], for which, in data set [1], the CC50 at 5 days was found to be 29.6 µM. In addition, the inhibition at 3 µM in data set [2] is 92%.

The CC50 is the concentration at which the toxic effect on the cells reaches its halfway point. Usually inhibition stands for the drop in the measured response relative to a control, in per cent.
